# ChEMBL document CHEMBL4265965, “Dichloroacetophenones targeting at pyruvate dehydrogenase kinase 1 with improved selectivity and antiproliferative activity: Synthesis and structure-activity relationships” (Bioorg Med Chem Lett, 2018)
# Active and inactive are the calls of the source. No cut-off for these calls is given here.
# Key:
# Format in all cases: functional
# [1] = system: NCI-H1975; experiment: Antiproliferative activity against human NCI-H1975 cells assessed as inhibition of cell proliferation at 12 uM after 72 hrs by MTT assay relative to control; details: NCI-H1975, 72 h
# [2] = system: NCI-H1975; experiment: Antiproliferative activity against human NCI-H1975 cells assessed as inhibition of cell proliferation at 6 uM after 72 hrs by MTT assay relative to control; details: NCI-H1975, 72 h
# [3] = system: NCI-H1975; experiment: Antiproliferative activity against human NCI-H1975 cells assessed as inhibition of cell proliferation at 2 uM after 72 hrs by MTT assay relative to control; details: NCI-H1975, 72 h
# [4] = system: NCI-H1650; experiment: Antiproliferative activity against human NCI-H1650 cells assessed as inhibition of cell proliferation at 12 uM after 72 hrs by MTT assay relative to control; details: NCI-H1650, 72 h
# [5] = system: NCI-H1650; experiment: Antiproliferative activity against human NCI-H1650 cells assessed as inhibition of cell proliferation at 6 uM after 72 hrs by MTT assay relative to control; details: for inhibition at 6 µM: NCI-H1650, 72 h
# [6] = system: NCI-H1650; experiment: Antiproliferative activity against human NCI-H1650 cells assessed as inhibition of cell proliferation at 2 uM after 72 hrs by MTT assay relative to control; details: for inhibition at 2 µM: NCI-H1650, 72 h
# [7] = system: A549; experiment: Antiproliferative activity against human A549 cells assessed as inhibition of cell proliferation at 12 uM after 72 hrs by MTT assay relative to control; details: A549, 72 h
# [8] = system: A549; experiment: Antiproliferative activity against human A549 cells assessed as inhibition of cell proliferation at 6 uM after 72 hrs by MTT assay relative to control; details: A549, 72 h
# [9] = system: A549; experiment: Antiproliferative activity against human A549 cells assessed as inhibition of cell proliferation at 2 uM after 72 hrs by MTT assay relative to control; details: for inhibition at 2 µM: A549, 72 h
Structure (SMILES),inhibition at 12 µM [1] [%],inhibition at 6 µM [2] [%],inhibition at 2 µM [3] [%],inhibition at 12 µM [4] [%],inhibition at 6 µM [5] [%],inhibition at 2 µM [6] [%],inhibition at 12 µM [7] [%],inhibition at 6 µM [8] [%],inhibition at 2 µM [9] [%],inhibition [5],inhibition [6],inhibition [9]
O=C(c1ccc(F)cc1)C(Cl)Cl,98.3,92.1,15.4,95.5,62.9,26.5,48.1,15.5,4.7,,,
CCc1cccc(C(=O)C(Cl)Cl)c1,96.9,85.9,28,98.7,64.1,23.7,63.2,25.7,22.6,,,
O=C(c1ccc(F)c([N+](=O)[O-])c1)C(Cl)Cl,97.6,73.3,6.5,14.5,,,51.1,20.4,7,inactive,inactive,
N#Cc1ccc(C(=O)C(Cl)Cl)cc1,99.7,99.4,54.6,96.5,65.8,11.8,61.4,15.9,8.5,,,
O=C(c1ccc(F)cc1F)C(Cl)Cl,98.7,97.5,74.3,95.3,65.5,30.8,58.5,50.1,4.8,,,
CC(C)c1ccc(C(=O)CCl)cc1[N+](=O)[O-],99,50.4,9,95.7,59.7,18.4,75.6,28.7,,,,inactive
O=C(c1cccc([N+](=O)[O-])c1)C(Cl)Cl,99.9,98.5,62.2,99.9,82.1,25.5,85.9,44.2,13.4,,,
O=C(c1cccc(Cl)c1)C(Cl)Cl,98.4,95.9,37,99.1,76.3,24.9,82.8,53.1,14.2,,,
COc1cccc2c1C(=O)c1c(O)c3c(c(O)c1C2=O)C[C@@](O)(C(=O)CO)C[C@@H]3O[C@H]1C[C@H](N)[C@H](O)[C@H](C)O1 [DOXORUBICIN],98.6,90.6,72.4,99.6,86.9,60.5,98.9,86.7,52.3,,,
O=C(c1cccc(Br)c1)C(Cl)Cl,97.4,86.2,44.9,79.6,43.6,18.1,72,24.7,15.6,,,
O=C(c1ccc([N+](=O)[O-])cc1)C(Cl)Cl,99.4,99.6,77.8,99.9,98.5,35,97.6,70.5,24.5,,,
Cc1cccc(C(=O)C(Cl)Cl)c1,96.7,97.3,42.5,96.8,79.9,33.3,91.3,65.6,14.2,,,
